Consider 2 compounds from US20090053721A1, “VOLTAGE-GATED ION CHANNEL MUTANTS FOR USE IN IDENTIFYING ION CHANNEL MODULATING COMPOUNDS” (CARDIOME PHARMA CORP., priority 2007, published 2009).

The structures appear in SMILES notation. Several values for one entry are separate records, joined by “and”; a condition that tells them apart may be missing. Identical values can stand only once. Counter-ions that a name gives are not always drawn.

Common to all, as to type: cell-based
In assay [1] the target is T1, Kv1.5 I502A mutant channel (Homo sapiens, UniProt P22460, I502A).
T1 construct: subcloned as a fragment back into full-length Kv1.5; expressed in transfected cells; host or cells: HEK293, transient transfection
In words: Whole-cell patch-clamp block of mutant Kv1.5 current in HEK293 cells. The conditions noted are these: for Fold change: IC50 of I502A relative to WT, decrease in potency. The protocol: (§1) Stable lines of HEK293 cells expressing Kv1.5, or transient transfection of mutant Kv1.5 channels were used in all experiments. […] (Coralville, Iowa, USA), and mutants were generated using the Stratagene Quikchange kit (Stratagene, Calif., USA). […] This was added to the cells for overnight incubation after washing the media with 900 μl of MEM with 10% FBS. […] Media contained 10% bovine serum and 0.5 mg/ml geneticin for stable lines. On the day before recording, stably-expressing cells were washed with MEM, treated with trypsin/EGTA for one minute and plated on 25 mm^2 coverslips. All cell culture supplies were obtained from Invitrogen (Mississauga, ON, Canada). Control bath solution contained (in mM): 5 KCl, 135 NaCl, 2.8 sodium acetate, 1 MgCl2, 10 HEPES and 1 CaCl2, adjusted to pH 7.4 with NaOH. Patch pipettes contained (in mM): 130 KCl, 5 EGTA, 1 MgCl2, 10 HEPES, 4 Na2ATP, and 0.1 GTP, adjusted to pH 7.2 with KOH. All chemicals used to make solutions were obtained from Sigma-Aldrich (Mississauga, ON, Canada). […] (Vancouver, BC, Canada) and prepared as a stock solution (50 mM) in H2O. […] DMSO concentrations for either drug never exceeded 0.1% v/v in the final experimental solutions. Coverslips with adherent cells plated on the surface were placed in a superfusion chamber (volume 300 μl) containing the control bath solution at 22° C. Whole-cell current recording and analysis were carried out using an Axopatch 200B amplifier and pClamp10 software (Axon Instruments, CA, USA). Patch electrodes were pulled from thin-walled borosilicate glass (World Precision Instruments, FL, USA) on a horizontal micropipette puller (Sutter Instruments, CA, USA). […] Analogue capacity compensation and 80% series resistance compensation were used during whole cell measurements. Membrane potentials were not corrected for junction potentials that arise between the pipette and bath solution. […] Data were sampled at 10-20 kHz and filtered at 5 to 10 kHz. […] Data are represented as mean±SE unless otherwise specified. For significance of differences, * represents p<0.05, ** p<0.01; statistical analysis was conducted using Student's t-test (unpaired). Clampfit software (Axon Instruments, CA, USA) was used to analyze current traces. Data from each test pulse (currents in the presence of drug) were normalized to control test pulse currents obtained before drug exposure. […] IC50 is the concentration producing half-maximal inhibition; and n is the Hill coefficient.
Background: Patch clamp records ionic current or voltage across a cell membrane.

Assay [2] concerns the target T2, Kv1.5 I502F mutant channel (Homo sapiens, UniProt P22460, I502F).
T2 construct: subcloned as a fragment back into full-length Kv1.5; expressed in transfected cells; host or cells: HEK293, transient transfection
Described as above. The protocol:
as §1

For assay [3], the target named is T3, Kv1.5 I502L mutant channel (Homo sapiens, UniProt P22460, I502L).
T3 construct: subcloned as a fragment back into full-length Kv1.5; expressed in transfected cells; host or cells: HEK293, transient transfection
The assay is described as above. The protocol: as §1

Assay [4] concerns the target T4, Kv1.5 I508A mutant channel (Homo sapiens, UniProt P22460, I508A).
T4 construct: subcloned as a fragment back into full-length Kv1.5; expressed in transfected cells; host or cells: HEK293, transient transfection
The description is as above. The settings on record: for Fold change: IC50 of I508A relative to WT, vernakalant potency reduced, flecainide potency increased. The procedure:
as §1

The target of assay [5] is T5, Kv1.5 I508F mutant channel (Homo sapiens, UniProt P22460, I508F).
T5 construct: subcloned as a fragment back into full-length Kv1.5; expressed in transfected cells; host or cells: HEK293, transient transfection
The description is as above. The protocol:
as §1

In assay [6] the target is T6, Kv1.5 T479A mutant channel (Homo sapiens, UniProt P22460, T479A).
T6 construct: subcloned as a fragment back into full-length Kv1.5; expressed in transfected cells; host or cells: HEK293, transient transfection
Described as above. The conditions noted are these: for Fold change: IC50 of T479A relative to WT, potency increased. The procedure: as §1

Assay [7] deals with T7, Kv1.5 V505A mutant channel (Homo sapiens, UniProt P22460, V505A).
T7 construct: subcloned as a fragment back into full-length Kv1.5; expressed in transfected cells; host or cells: HEK293, transient transfection
Described as above. The conditions noted are these: for Fold change: IC50 of V505A relative to WT, vernakalant potency reduced, flecainide potency increased. The procedure: as §1

For assay [8], the target named is T8, Kv1.5 V505F mutant channel (Homo sapiens, UniProt P22460, V505F).
T8 construct: subcloned as a fragment back into full-length Kv1.5; expressed in transfected cells; host or cells: HEK293, transient transfection
The assay is described as above. The procedure:
as §1

The target in assay [9] is T9, Kv1.5 WT channel (Homo sapiens, UniProt P22460).
T9 construct: subcloned as a fragment back into full-length Kv1.5; expressed in transfected cells
In words: Voltage-dependence of block (Woodhull fit), wild-type Kv1.5. The settings on record: for blocking site, electrical distance across the membrane: Woodhull fit, +10 to +60 mV; for calculated binding site within the electric field (fractional electrical distance δ): from the inside of the pore. The protocol: (§2) Coverslips with adherent cells plated on the surface were placed in a superfusion chamber (volume 300 μl) containing the control bath solution at 22° C. Whole-cell current recording and analysis were carried out using an Axopatch 200B amplifier and pClamp10 software (Axon Instruments, CA, USA). Patch electrodes were pulled from thin-walled borosilicate glass (World Precision Instruments, FL, USA) on a horizontal micropipette puller (Sutter Instruments, CA, USA). […] Analogue capacity compensation and 80% series resistance compensation were used during whole cell measurements. Membrane potentials were not corrected for junction potentials that arise between the pipette and bath solution. For Kv1.5 current recordings, a holding potential of −80 mV was used. Data were sampled at 10-20 kHz and filtered at 5 to 10 kHz. To assess drug block, half-log escalating concentrations of drug were added to the flowing bath solution and current traces were recorded with 400 ms depolarizing pulses to +60 mV at a frequency of 0.1 Hz.
(§3) f=[D]/([D]+Kd*e^−δzFE/RT)
(§4) where F, R, z and T have their usual meanings, δ represents the fractional electrical distance, i.e., the fraction of the transmembrane electrical field sensed by a single charge at the receptor site. Kd* represents the binding affinity at the reference voltage (0 mV). The current amplitude (Idrug and Icontrol) was measured at the end of a 400 ms depolarization.
(§5) The amount of block was measured at the end of the pulse at the time indicated by the arrow on each set of data records, and, after normalization to the control, current density was plotted as a function of the depolarization potential (FIGS. 7B, 8B). Data were then fit to a standard model of drug block to obtain the electrical distance of the blocking site into the electric field from the inside of the channel (Woodhull, 1973).

Assay [10] deals with T1, Kv1.5 I502A mutant channel. Briefly: Voltage-dependence of block (Woodhull fit), I502A Kv1.5. The conditions noted are these: for blocking site, electrical distance across the membrane: Woodhull fit; for calculated binding site within the electric field (fractional electrical distance δ): from the inside of the pore. The protocol: as §2, §3, §4, §5

T2 sequence (P22460 whole entry I502F, the tested form may be a part): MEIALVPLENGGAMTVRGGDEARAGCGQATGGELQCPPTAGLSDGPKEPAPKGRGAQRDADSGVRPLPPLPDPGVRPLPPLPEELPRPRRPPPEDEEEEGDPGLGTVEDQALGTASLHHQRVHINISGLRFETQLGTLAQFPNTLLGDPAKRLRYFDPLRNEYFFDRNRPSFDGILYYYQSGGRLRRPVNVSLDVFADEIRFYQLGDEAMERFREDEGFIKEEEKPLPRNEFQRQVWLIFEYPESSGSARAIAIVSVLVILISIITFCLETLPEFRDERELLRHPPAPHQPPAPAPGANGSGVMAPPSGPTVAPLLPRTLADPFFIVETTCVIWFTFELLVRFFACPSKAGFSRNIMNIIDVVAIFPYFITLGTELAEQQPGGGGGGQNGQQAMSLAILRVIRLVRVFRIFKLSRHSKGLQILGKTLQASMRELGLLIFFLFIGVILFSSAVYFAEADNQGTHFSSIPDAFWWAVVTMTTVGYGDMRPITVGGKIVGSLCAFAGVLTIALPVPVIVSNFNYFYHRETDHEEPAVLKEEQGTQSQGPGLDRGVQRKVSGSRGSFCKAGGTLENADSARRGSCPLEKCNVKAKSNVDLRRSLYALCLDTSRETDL
T6 sequence (P22460 whole entry T479A, the tested form may be a part): as the sequence (P22460 whole entry I502F, the tested form may be a part) above, with T479A, F502I counted along it
T7 sequence (P22460 whole entry V505A, the tested form may be a part): as the sequence (P22460 whole entry I502F, the tested form may be a part) above, with F502I, V505A counted along it
T4 sequence (P22460 whole entry I508A, the tested form may be a part): as the sequence (P22460 whole entry I502F, the tested form may be a part) above, with F502I, I508A counted along it
T9 sequence (P22460 whole entry, the tested form may be a part): as the sequence (P22460 whole entry I502F, the tested form may be a part) above, with F502I counted along it
T3 sequence (P22460 whole entry I502L, the tested form may be a part): as the sequence (P22460 whole entry I502F, the tested form may be a part) above, with F502L counted along it
T8 sequence (P22460 whole entry V505F, the tested form may be a part): as the sequence (P22460 whole entry I502F, the tested form may be a part) above, with F502I, V505F counted along it
T1 sequence (P22460 whole entry I502A, the tested form may be a part): as the sequence (P22460 whole entry I502F, the tested form may be a part) above, with F502A counted along it
T5 sequence (P22460 whole entry I508F, the tested form may be a part): as the sequence (P22460 whole entry I502F, the tested form may be a part) above, with F502I, I508F counted along it

For the compound `O=C(NCC1CCCCN1)c1cc(OCC(F)(F)F)ccc1OCC(F)(F)F` (centres unmarked) [Flecainide], the Fold change in [1] was found to be 2.43; in assay [1] (listed as flecamide), 2.4; in [2] (IC50 of I502F relative to WT) it was 4.13; in assay [3] (IC50 of I502L relative to WT, direction differs by drug), 3.55; in assay [4], 5.15; in assay [4] (listed as flecamide), 5.2. Moreover, the Fold change is recorded as 1.96 in assay [5] (IC50 of I508F relative to WT, direction differs by drug); 200 in assay [6]; 238 in assay [6] (listed as flecamide); 2.92 in [7]; 3 in assay [7] (listed as flecamide); 8.93 in [8] (IC50 of V505F relative to WT, direction differs by drug). In addition, the IC50 in assay [1] (Kv1.5 I502A) is 92 µM; in assay [2] (Kv1.5 I502F), 164 ± 31.4 µM; in [3] (Kv1.5 I502L) it was 10.8 ± 1.09 µM; in [4] (Kv1.5 I508A) it was 7.39 ± 0.92 µM; in [5] (Kv1.5 I508F), 74.7 ± 5.37 µM; in assay [6] (Kv1.5 T479A) it was 0.19 ± 0.04 µM. Besides, the 50% inhibitory concentration (IC50) is 13.1 ± 3.58 µM in assay [7] (Kv1.5 V505A); 4.3 µM and 4.27 µM in assay [8] (Kv1.5 V505F). In addition, the “blocking site, electrical distance across the membrane” value is listed as approximately 17% in assay [9] and 32% in [10]. For the same compound, the “calculated binding site within the electric field (fractional electrical distance δ)” value in [9] is reported as 0.17; in assay [10] it was 0.32.

Regarding `COc1ccc(CCO[C@@H]2CCCC[C@H]2N2CC[C@@H](O)C2)cc1OC` [Vernakalant, 3-Pyrrolidinol, 1-[(1R,2R)-2-[2-(3,4-dimethoxyphenyl)ethoxy]cyclohexyl]-,hydrochloride, (3R)], the Hill coefficient in assay [1] (Kv1.5 I502A) stood at 0.65; in assay [2] (Kv1.5 I502F), 0.84; in assay [3] (Kv1.5 I502L), 0.96; in assay [4] (Kv1.5 I508A), 0.87; in assay [5] (Kv1.5 I508F), 1.23; in assay [6] (Kv1.5 T479A), 0.6. The values for the Hill coefficient in [7] (Kv1.5 V505A) and in assay [8] (Kv1.5 V505F) were 0.95 and 0.96, respectively. Moreover, the “Fractional Block ± SEM” value in [1] (Kv1.5 I502A, 10 μM vernakalant) was 0.07 ± 0.03; in [2] (Kv1.5 I502F, 10 μM vernakalant), 0.10 ± 0.01; in [3] (Kv1.5 I502L, 10 μM vernakalant), 0.33 ± 0.07; in assay [4] (Kv1.5 I508A, 10 μM vernakalant), 0.21 ± 0.03; in [5] (Kv1.5 I508F, 10 μM vernakalant), 0.94 ± 0.02; in [6] (Kv1.5 T479A, 10 μM vernakalant) it was 0.77 ± 0.05. In addition, the “Fractional Block ± SEM” value is reported as 0.21 ± 0.04 in assay [7] (Kv1.5 V505A, 10 μM vernakalant) and 0.27 ± 0.05 in [8] (Kv1.5 V505F, 10 μM vernakalant). Further, the “blocking site, electrical distance across the membrane” value was approximately 17% in assay [9] and approximately 40% in assay [10]. For the same compound, the results for the “calculated binding site within the electric field (fractional electrical distance δ)” value in [9] and in assay [10] were 0.17 and 0.39, respectively.

By IC50 is commonly meant the point on the concentration scale where inhibition reaches its midpoint. A higher IC50 goes with a need for much substance. Usually Hill coefficient stands for a measure of the steepness of the concentration-response curve.
